Data published in US20220289698A1, “INHIBITORS OF HUMAN ATGL” (Karl-Franzens-Universität Graz, priority 2019, published 2022).

Tests used:
[1] = Stability in human serum; type: in vitro ADME; details: 37° C., HPLC MS
Description: Inhibitors were incubated in human serum for 0 or 3 h at 37° C. and subsequently extracted with the MTBE method and analyzed via HPLC MS. Samples measured in triplicates.

[2] = molecular target: T1, hPNPLA9 (Homo sapiens, UniProt O60733); assay: hPNPLA9 off-target inhibition; type: biochemical; details: read-out: hPNPLA9 off-target inhibition [% inhibition at 100 μM]
T1 construct: made in house; host or cells: Expi cells (lysate)
T1 sequence (O60733 1-806): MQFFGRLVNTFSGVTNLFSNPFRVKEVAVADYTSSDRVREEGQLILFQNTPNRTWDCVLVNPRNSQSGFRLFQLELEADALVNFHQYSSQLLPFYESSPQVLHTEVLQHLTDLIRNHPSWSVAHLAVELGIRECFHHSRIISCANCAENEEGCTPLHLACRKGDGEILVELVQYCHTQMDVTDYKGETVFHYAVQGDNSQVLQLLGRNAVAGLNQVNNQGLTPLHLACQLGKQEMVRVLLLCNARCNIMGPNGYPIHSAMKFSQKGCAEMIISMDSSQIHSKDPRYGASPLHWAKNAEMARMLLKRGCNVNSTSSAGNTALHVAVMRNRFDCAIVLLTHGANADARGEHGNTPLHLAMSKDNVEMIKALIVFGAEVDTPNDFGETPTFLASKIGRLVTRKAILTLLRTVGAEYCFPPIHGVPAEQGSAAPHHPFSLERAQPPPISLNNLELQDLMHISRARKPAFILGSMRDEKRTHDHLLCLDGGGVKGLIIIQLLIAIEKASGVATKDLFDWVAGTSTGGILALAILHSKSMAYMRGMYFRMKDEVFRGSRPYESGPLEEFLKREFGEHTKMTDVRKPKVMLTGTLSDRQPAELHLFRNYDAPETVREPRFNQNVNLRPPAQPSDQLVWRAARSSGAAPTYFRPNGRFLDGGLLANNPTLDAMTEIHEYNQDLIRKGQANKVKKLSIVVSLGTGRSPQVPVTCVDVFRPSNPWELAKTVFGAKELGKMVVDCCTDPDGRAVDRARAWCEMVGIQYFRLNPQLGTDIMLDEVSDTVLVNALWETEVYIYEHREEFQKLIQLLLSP
Description: Expi lysates expressing hPNPLA9 were treated with 100 μM Inhibitors and incubated with 1 mM C8 monoacylglycerol substrate (containing 5 mM CHAPS, 50 mM NaPh buffer ph7.4, 0.15 M NaCl) for 40 min. Glycerol release was determined via Free glycerol reagent (Sigma Aldrich). Samples measured in triplicates, […]

[3] = molecular target: T2, hPNPLA6 (Homo sapiens, UniProt Q8IY17); assay: hPNPLA6 off-target inhibition; type: biochemical; details: read-out: hPNPLA6 off-target inhibition [% inhibition at 100 μM]
T2 construct: made in house; host or cells: Expi cells (lysate)
T2 sequence (Q8IY17 1-1375): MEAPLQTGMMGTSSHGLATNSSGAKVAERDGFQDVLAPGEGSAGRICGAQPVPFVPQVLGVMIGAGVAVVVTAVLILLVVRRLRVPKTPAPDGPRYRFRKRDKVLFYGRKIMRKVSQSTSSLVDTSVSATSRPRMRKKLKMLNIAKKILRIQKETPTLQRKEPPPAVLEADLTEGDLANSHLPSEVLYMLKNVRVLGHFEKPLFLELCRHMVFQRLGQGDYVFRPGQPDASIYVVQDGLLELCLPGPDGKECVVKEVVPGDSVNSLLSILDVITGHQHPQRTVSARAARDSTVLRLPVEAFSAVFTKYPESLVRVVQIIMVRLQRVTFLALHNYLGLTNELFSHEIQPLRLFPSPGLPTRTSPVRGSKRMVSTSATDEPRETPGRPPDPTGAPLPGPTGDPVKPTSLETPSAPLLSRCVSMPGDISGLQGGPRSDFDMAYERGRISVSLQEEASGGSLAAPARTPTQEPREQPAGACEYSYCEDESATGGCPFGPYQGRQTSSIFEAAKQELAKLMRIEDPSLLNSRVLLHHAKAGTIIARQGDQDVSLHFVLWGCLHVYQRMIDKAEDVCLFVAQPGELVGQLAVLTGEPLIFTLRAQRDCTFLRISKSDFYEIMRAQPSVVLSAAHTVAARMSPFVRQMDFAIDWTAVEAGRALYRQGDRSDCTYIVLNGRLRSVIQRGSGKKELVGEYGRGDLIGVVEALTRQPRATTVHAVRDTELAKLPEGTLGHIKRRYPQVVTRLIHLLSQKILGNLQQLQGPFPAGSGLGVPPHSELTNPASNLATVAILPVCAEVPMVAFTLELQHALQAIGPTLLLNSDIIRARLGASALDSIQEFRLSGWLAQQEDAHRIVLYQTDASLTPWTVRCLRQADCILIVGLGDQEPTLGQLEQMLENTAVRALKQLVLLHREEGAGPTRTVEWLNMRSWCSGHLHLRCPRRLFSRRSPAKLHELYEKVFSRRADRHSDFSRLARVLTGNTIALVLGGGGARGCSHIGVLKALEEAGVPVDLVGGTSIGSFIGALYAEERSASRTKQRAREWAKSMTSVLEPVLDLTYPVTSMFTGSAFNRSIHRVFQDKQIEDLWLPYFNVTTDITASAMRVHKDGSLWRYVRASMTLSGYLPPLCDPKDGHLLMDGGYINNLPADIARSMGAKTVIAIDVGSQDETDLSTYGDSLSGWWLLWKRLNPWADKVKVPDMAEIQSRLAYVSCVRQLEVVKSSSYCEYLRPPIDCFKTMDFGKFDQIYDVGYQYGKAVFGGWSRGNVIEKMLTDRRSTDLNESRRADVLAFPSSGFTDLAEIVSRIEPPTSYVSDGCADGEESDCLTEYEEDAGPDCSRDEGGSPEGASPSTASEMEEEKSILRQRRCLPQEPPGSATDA
Description: Expi lysates expressing hPNPLA6 were treated with 100 μM Inhibitors and incubated with 1 mM C8 monoacylglycerol substrate (containing 5 mM CHAPS, 50 mM NaPh buffer ph7.4, 0.15 M NaCl) for 40 min, Glycerol release was determined via Free glycerol reagent (Sigma Aldrich). Samples measured in triplicates.

SMILES	Stability in human serum [% rest after 3 h incubation] [1] [%]	inhibition at 100 µM [2] [%]	inhibition at 100 µM [3] [%]
CCOc1ccc(-c2nc(C(=O)OCc3cccs3)cs2)cc1 [Example 152, Thiophen-2-ylmethyl 2-(4-ethoxyphenyl)thiazole-4-carboxylate]	80	0	0
CCOc1ccc(-c2nc(C(=O)OCc3ccsc3)cs2)cc1 [Example 215, Thiophen-3-ylmethyl 2-(4-ethoxyphenyl)thiazole-4-carboxylate]	80	0	0
CCCCOC(=O)c1csc(-c2ccc(OCC)cc2)n1 [Example 212, Butyl 2-(4-ethoxyphenyl)thiazole-4-carboxylate]	50	0	0
CCOc1ccc(-c2nc(C(=O)OCc3ccc(Br)s3)cs2)cc1 [Example 224, (5-Bromothiophen-2-yl)methyl 2-(4-ethoxyphenyl)thiazole-4-carboxylate]	–	0	0
CCOc1ccc(-c2cccc(C(=O)OCc3ccco3)n2)cc1 [Example 190, Furan-2-ylmethyl 6-(4-ethoxyphenyl)picolinate]	0	0	0
CC#CCOC(=O)c1csc(-c2ccc(OCC)cc2)n1 [Example 209, But-2-yn-1-yl 2-(4-ethoxyphenyl)thiazole-4-carboxylate]	75	0	0
CCOc1ccc(-c2nc(C(=O)OCc3ccoc3)cs2)cc1 [Example 216, Furan-3-ylmethyl 2-(4-ethoxyphenyl)thiazole-4-carboxylate]	60	0	0
C#C[C@@H](C)OC(=O)c1csc(-c2ccc(OCC)cc2)n1 [Example 211, (R)-But-3-yn-2-yl 2-(4-ethoxyphenyl)thiazole-4-carboxylate]	90	0	0
CCOc1ccc(-c2nc(C(=O)OCc3ccc(Cl)s3)cs2)cc1 [Example 223, (5-Chlorothiophen-2-yl)methyl 2-(4-ethoxyphenyl)thiazole-4-carboxylate]	80	0	0
COc1cc(C(=O)OC(C)C)nc(-c2ccc(OC(C)C)cc2)c1 [Example 201, Isopropyl 6-(4-isopropoxyphenyl)-4-methoxypicolinate]	100	0	0
C#C[C@H](C)OC(=O)c1csc(-c2ccc(OCC)cc2)n1 [Example 210, (S)-But-3-yn-2-yl 2-(4-ethoxyphenyl)thiazole-4-carboxylate]	100	0	0
CCOc1ccc(-c2cc(OC)cc(C(=O)OC(C)C)n2)cc1 [Example 35]	75	0	–
CCOc1ccc(-c2cccc(C(=O)OCc3cccs3)n2)cc1 [Example 189, Thiophen-2-ylmethyl 6-(4-ethoxyphenyl)picolinate]	25	0	0
